Assay results published in ChEMBL document CHEMBL4219140, “First discovery of a potential carbonate prodrug of NNRTI drug candidate RDEA427 with submicromolar inhibitory activity against HIV-1 K103N/Y181C double mutant strain” (Bioorg Med Chem Lett, 2018).
Active and inactive are the calls of the source. The rule behind the calls is not given here.

How the values were obtained:
[1] = system: Human immunodeficiency virus 1; test: Resistance index, ratio of EC50 for HIV1 RES056 harboring K103N/Y181C double mutant infected in human MT4 cells to EC50 for wild-type HIV1 3B infected in human MT4 cells; assay type: functional
[2] = Selectivity index, ratio of CC50 for human MT4 cells to EC50 for HIV1 RES056 expressing reverse transcriptase K103N/Y181C double mutant; assay type: toxicity; details: read-out: Ratio CC50/EC50
[3] = biological target: Human immunodeficiency virus type 1 reverse transcriptase (Human immunodeficiency virus 1, UniProt Q72547); test: Inhibition of recombinant wild-type HIV1 reverse transcriptase p66/p51 RNA-dependent DNA polymerase activity assessed as reduction in biotin-dUTP incorporation using poly(rA)/oligo(dT)16 as template/primer after 40 mins by PicoGreen dye based spectrofluorometric analysis
[4] = Cytotoxicity against human MT4 cells after 5 days by MTT assay; assay type: cell-based
[5] = Selectivity index, ratio of CC50 for human MT4 cells to EC50 for HIV1 3B expressing wild type reverse transcriptase infected in human MT4 cells; assay type: toxicity, cell-based; details: read-out: Ratio CC50/EC50
[6] = system: Human immunodeficiency virus 1; test: Antiviral activity against HIV1 3B expressing wild type reverse transcriptase infected in human MT4 cells assessed as protection against virus-induced cytopathic effect after 5 days by MTT assay; assay type: functional, organism-based; details: Human immunodeficiency virus 1, 3B, MT4, 120 h
[7] = system: Human immunodeficiency virus 1; test: Antiviral activity against HIV1 RES056 expressing reverse transcriptase K103N/Y181C double mutant infected in human MT4 cells assessed as protection against virus-induced cytopathic effect after 5 days by MTT assay; assay type: functional, organism-based; details: Human immunodeficiency virus 1, RES056, MT4, 120 h
[8] = Prodrug conversion in human plasma assessed as RDEA427 formation by measuring remaining prodrug levels at 100 uM measured after 30 mins by LC-MS/MS analysis; assay type: ADME, cell-free; details: 0.5 h
[9] = Prodrug conversion in human plasma assessed as RDEA427 formation by measuring remaining prodrug levels at 100 uM measured after 120 mins by LC-MS/MS analysis; assay type: ADME, cell-free; details: 2 h
[10] = system: Human immunodeficiency virus 2; test: Antiviral activity against HIV2 ROD infected in human MT4 cells after 5 days by MTT assay; assay type: functional, organism-based; details: ISOLATE ROD
[11] = Prodrug conversion in human plasma assessed as RDEA427 formation by measuring remaining prodrug levels at 100 uM measured after 60 mins by LC-MS/MS analysis; assay type: ADME, cell-free; details: 1 h
[12] = Prodrug conversion in human plasma assessed as RDEA427 formation by measuring remaining prodrug levels at 100 uM measured after 10 mins by LC-MS/MS analysis; assay type: ADME, cell-free
[13] = Prodrug conversion in human plasma assessed as RDEA427 formation at 100 uM by LC-MS/MS analysis; assay type: ADME, cell-free; details: TDE = time-dependent effect
[14] = Metabolic stability in human plasma assessed as parent compound remaining at 100 uM after 10 mins by LC-MS/MS analysis; assay type: ADME, cell-free; details: read-out: Stability
[15] = Metabolic stability in human plasma assessed as parent compound remaining at 100 uM after 60 mins by LC-MS/MS analysis; assay type: ADME, cell-free; details: read-out: Stability
[16] = Metabolic stability in human plasma assessed as parent compound remaining at 100 uM after 30 mins by LC-MS/MS analysis; assay type: ADME, cell-free; details: read-out: Stability
[17] = Metabolic stability in human plasma assessed as parent compound remaining at 100 uM after 120 mins by LC-MS/MS analysis; assay type: ADME, cell-free; details: read-out: Stability

remaining at 10 min, 100 µM [14]	remaining at 1 h, 100 µM [15]	remaining at 0.5 h, 100 µM [16]	remaining at 2 h, 100 µM [17]	SMILES	Ratio EC50 [1]	selectivity ratio [2]	IC50 [3]	CC50 at 120 h [4]	selectivity ratio [5]	EC50 [6]	EC50 [7]	Stability [8]	Stability [9]	Activity [10]	Stability [11]	Stability [12]	Drug metabolism [13]
–	–	–	–	Cc1cc(C#N)cc(C)c1Oc1nc(Nc2ccc(C#N)cc2)nc2[nH]ccc12	19.1	≥ 22	16 nM	≥ 1240 nM	≥ 425	2.9 nM	56 nM	–	–	–	–	–	–
–	–	–	–	Cc1cc(C#N)cc(C)c1Oc1nc(Nc2ccc(C#N)cc2)nc2c1ccn2COC(=O)OC(C)C	27.3	7	264 nM	1050 nM	190	5.5 nM	150 nM	73.9%	56.4%	inactive	53.3%	87.8%	Tde
–	–	–	–	O=C1Nc2ccc(Cl)cc2[C@@](C#CC2CC2)(C(F)(F)F)O1 [EFAVIRENZ]	30	> 44	–	> 6340 nM	> 1320	4.8 nM	140 nM	–	–	–	–	–	–
–	–	–	–	Cc1cc(C#N)cc(C)c1Oc1nc(Nc2ccc(C#N)cc2)nc(N)c1Br [ETRAVIRINE]	12	> 97	–	> 4590 nM	> 1170	3.9 nM	47 nM	–	–	–	–	–	–
–	–	–	–	Cc1ccnc2c1NC(=O)c1cccnc1N2C1CC1 [NEVIRAPINE]	–	1	–	> 15000 nM	> 34	440 nM	> 15000 nM	–	–	–	–	–	–
54.8%	5.1%	19.4%	0.5%	CC(C)[N+](C)(CCOC(=O)C1c2ccccc2Oc2ccccc21)C(C)C [PROPANTHELINE]	–	–	–	–	–	–	–	–	–	–	–	–	–
